Data taken from patent US9149038B2, “4-amino-6-(heterocyclic)picolinates and 6-amino-2-(heterocyclic)pyrimidine-4-carboxylates and their use as herbicides” (Dow AgroSciences LLC, priority 2013, dated 2015).
Where two headings read alike, the source gives them in different places.

What was measured:
[1] = tested on: Key Grass and Sedge Weeds as well as Grass Crops; assay: Post-Emergent Test II: postemergent herbicidal activity, visual rating after 14 d (Table 8); format: in vivo; details: post-emergence, 336 h; for pest or weed control at 35 g/ha: 35 g ai/ha; for pest or weed control at 70 g/ha: 70 g ai/ha; for pest or weed control at 140 g/ha: 140 g ai/ha
Procedure, shortened: (§1)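 Visual scoring at 14 d, 0 (no injury) to 100 (complete kill), relative to untreated plants. Postemergent overhead track-sprayer application, 187 L/ha, at a top rate plus serial ½×–1/16× rates, to plants grown 7–21 d at about 23–29° C day under a 15 h photoperiod, then subirrigated.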

[2] = tested on: Key Broadleaf Weed and Crop Species; assay: Post-Emergent Test II: postemergent herbicidal activity, visual rating after 14 d (Table 7); format: in vivo; details: post-emergence, 336 h; for pest or weed control at 35 g/ha: 35 g ai/ha; for pest or weed control at 70 g/ha: 70 g ai/ha; for pest or weed control at 140 g/ha: 140 g ai/ha
Procedure, shortened: as §1

[3] = barnyardgrass (Echinochloa crus-galli), read-out: Visual Growth Reduction (%) 14 Days After Application ECHCG
[4] = giant foxtail (Setaria faberi), read-out: Visual Growth Reduction (%) 14 Days After Application SETFA
[5] = maize, corn (Zea mays), read-out: Visual Growth Reduction (%) 14 Days After Application ZEAMX
[6] = rice (Oryza sativa), read-out: Visual Growth Reduction (%) 14 Days After Application ORYSA
[7] = wheat, spring (Triticum aestivum), read-out: Visual Growth Reduction (%) 14 Days After Application TRZAS
[8] = yellow nutsedge (Cyperus esculentus), read-out: Visual Growth Reduction (%) 14 Days After Application CYPES
[9] = lambsquarters (Chenopodium album), read-out: Visual Growth Reduction (%) 14 Days After Application CHEAL
[10] = oilseed rape, canola (Brassica napus), read-out: Visual Growth Reduction (%) 14 Days After Application BRSNN
[11] = redroot pigweed (Amaranthus retroflexus), read-out: Visual Growth Reduction (%) 14 Days After Application AMARE
[12] = sunflower (Helianthus annuus), read-out: Visual Growth Reduction (%) 14 Days After Application HELAN
[13] = velvetleaf (Abutilon theophrasti), read-out: Visual Growth Reduction (%) 14 Days After Application ABUTH
[14] = wild poinsettia (Euphorbia heterophylla), read-out: Visual Growth Reduction (%) 14 Days After Application EPHHL

Structure (SMILES) | pest or weed control at 35 g/ha [1, 3] | pest or weed control at 70 g/ha [1, 3] | pest or weed control at 35 g/ha [1, 4] | pest or weed control at 70 g/ha [1, 4] | pest or weed control at 140 g/ha [1, 4] | pest or weed control at 35 g/ha [1, 5] | pest or weed control at 70 g/ha [1, 5] | pest or weed control at 140 g/ha [1, 5] | pest or weed control at 35 g/ha [1, 6] | pest or weed control at 70 g/ha [1, 6] | pest or weed control at 140 g/ha [1, 6] | pest or weed control at 35 g/ha [1, 7] | pest or weed control at 70 g/ha [1, 7] | pest or weed control at 140 g/ha [1, 7] | pest or weed control at 35 g/ha [1, 8] | pest or weed control at 70 g/ha [1, 8] | pest or weed control at 140 g/ha [1, 8] | pest or weed control at 35 g/ha [2, 9] | pest or weed control at 70 g/ha [2, 9] | pest or weed control at 140 g/ha [2, 9] | further results
Nc1cc(-c2cc3c(cc2F)OC(F)(F)O3)nc(C(=O)O)c1Cl [Compound 42] | 95 to 100% | 95 to 100% | 60 to 74% | 75 to 84% | 75 to 84% | 60 to 74% | 75 to 84% | 75 to 84% | 30 to 44% | 30 to 44% | 30 to 44% | 60 to 74% | 60 to 74% | 60 to 74% | 95 to 100% | 95 to 100% | 95 to 100% | 85 to 94% | 85 to 94% | 85 to 94% | pest or weed control at 140 g/ha [1, 3]: 95 to 100%; pest or weed control at 35 g/ha [2, 10]: 95 to 100%; pest or weed control at 70 g/ha [2, 10]: 95 to 100%; pest or weed control at 140 g/ha [2, 10]: 95 to 100%; pest or weed control at 35 g/ha [2, 11]: 95 to 100%; pest or weed control at 70 g/ha [2, 11]: 95 to 100%; pest or weed control at 140 g/ha [2, 11]: 95 to 100%; pest or weed control at 35 g/ha [2, 12]: 45 to 59%; pest or weed control at 70 g/ha [2, 12]: 60 to 74%; pest or weed control at 140 g/ha [2, 12]: 75 to 84%; pest or weed control at 35 g/ha [2, 13]: 85 to 94%; pest or weed control at 70 g/ha [2, 13]: 85 to 94%; pest or weed control at 140 g/ha [2, 13]: 85 to 94%; pest or weed control at 35 g/ha [2, 14]: 95 to 100%; pest or weed control at 70 g/ha [2, 14]: 95 to 100%; pest or weed control at 140 g/ha [2, 14]: 95 to 100%
COC(=O)c1nc(-c2cccc3c2OC(F)(F)O3)c(F)c(N)c1Cl [Compound 73] | 0 to 29% | 0 to 29% | 0 to 29% | 0 to 29% | 0 to 29% | 0 to 29% | 0 to 29% | 0 to 29% | 0 to 29% | 0 to 29% | 0 to 29% | 0 to 29% | 0 to 29% | 0 to 29% | 0 to 29% | 45 to 59% | 45 to 59% | 95 to 100% | 95 to 100% | 95 to 100% | pest or weed control at 140 g/ha [1, 3]: 0 to 29%; pest or weed control at 35 g/ha [2, 10]: 85 to 94%; pest or weed control at 70 g/ha [2, 10]: 95 to 100%; pest or weed control at 140 g/ha [2, 10]: 95 to 100%; pest or weed control at 35 g/ha [2, 11]: 95 to 100%; pest or weed control at 70 g/ha [2, 11]: 95 to 100%; pest or weed control at 140 g/ha [2, 11]: 95 to 100%; pest or weed control at 35 g/ha [2, 12]: 75 to 84%; pest or weed control at 70 g/ha [2, 12]: 85 to 94%; pest or weed control at 140 g/ha [2, 12]: 95 to 100%; pest or weed control at 35 g/ha [2, 13]: 75 to 84%; pest or weed control at 70 g/ha [2, 13]: 75 to 84%; pest or weed control at 140 g/ha [2, 13]: 85 to 94%; pest or weed control at 35 g/ha [2, 14]: 0 to 29%; pest or weed control at 70 g/ha [2, 14]: 0 to 29%; pest or weed control at 140 g/ha [2, 14]: 0 to 29%
Nc1nc(-c2ccc3c(c2F)OC(F)(F)O3)nc(C(=O)O)c1Cl [Compound 59] | 75 to 84% | 75 to 84% | 45 to 59% | 60 to 74% | 60 to 74% | 60 to 74% | 60 to 74% | 60 to 74% | 0 to 29% | 0 to 29% | 0 to 29% | 0 to 29% | 0 to 29% | 0 to 29% | 0 to 29% | 0 to 29% | 85 to 94% | 75 to 84% | 85 to 94% | 85 to 94% | pest or weed control at 35 g/ha [2, 10]: 60 to 74%; pest or weed control at 70 g/ha [2, 10]: 85 to 94%; pest or weed control at 140 g/ha [2, 10]: 85 to 94%; pest or weed control at 35 g/ha [2, 11]: 45 to 59%; pest or weed control at 70 g/ha [2, 11]: 85 to 94%; pest or weed control at 140 g/ha [2, 11]: 95 to 100%; pest or weed control at 35 g/ha [2, 12]: 60 to 74%; pest or weed control at 70 g/ha [2, 12]: 75 to 84%; pest or weed control at 140 g/ha [2, 12]: 75 to 84%; pest or weed control at 35 g/ha [2, 13]: 0 to 29%; pest or weed control at 70 g/ha [2, 13]: 0 to 29%; pest or weed control at 140 g/ha [2, 13]: 60 to 74%; pest or weed control at 35 g/ha [2, 14]: 95 to 100%; pest or weed control at 70 g/ha [2, 14]: 95 to 100%; pest or weed control at 140 g/ha [2, 14]: 95 to 100%
COC(=O)c1nc(-c2ccc3c(c2F)OC(F)(F)O3)nc(N)c1Cl [Compound 58] | 75 to 84% | 85 to 94% | 30 to 44% | 45 to 59% | 45 to 59% | 45 to 59% | 60 to 74% | 75 to 84% | 0 to 29% | 0 to 29% | 0 to 29% | 0 to 29% | 0 to 29% | 0 to 29% | 60 to 74% | 60 to 74% | 60 to 74% | 95 to 100% | 95 to 100% | 95 to 100% | pest or weed control at 140 g/ha [1, 3]: 95 to 100%; pest or weed control at 35 g/ha [2, 10]: 0 to 29%; pest or weed control at 70 g/ha [2, 10]: 0 to 29%; pest or weed control at 140 g/ha [2, 10]: 60 to 74%; pest or weed control at 35 g/ha [2, 11]: 0 to 29%; pest or weed control at 70 g/ha [2, 11]: 45 to 59%; pest or weed control at 140 g/ha [2, 11]: 95 to 100%; pest or weed control at 35 g/ha [2, 12]: 75 to 84%; pest or weed control at 70 g/ha [2, 12]: 75 to 84%; pest or weed control at 140 g/ha [2, 12]: 75 to 84%; pest or weed control at 35 g/ha [2, 13]: 0 to 29%; pest or weed control at 70 g/ha [2, 13]: 0 to 29%; pest or weed control at 140 g/ha [2, 13]: 75 to 84%; pest or weed control at 35 g/ha [2, 14]: 95 to 100%; pest or weed control at 70 g/ha [2, 14]: 95 to 100%; pest or weed control at 140 g/ha [2, 14]: 95 to 100%
